Experimental data: PubChem BioAssay (NCI)
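Each compound was tested at five concentrations against cells in 96-well plates for 48 hours. TGI marks complete inhibition of growth.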

How the values were obtained:
Test in all cases: NCI tumour cell line growth inhibition, 48 h
DMS 114 small cell lung = tested on: DMS 114 small cell lung
M19-MEL melanoma = tested on: M19-MEL melanoma
SNB-78 CNS = tested on: SNB-78 CNS
DMS 273 small cell lung = tested on: DMS 273 small cell lung
KM20L2 colon = tested on: KM20L2 colon
RXF-631 renal = tested on: RXF-631 renal
HOP-18 NSCLC = tested on: HOP-18 NSCLC

SMILES	TGI (DMS 114 small cell lung) [µM]	TGI (M19-MEL melanoma) [µM]	TGI (SNB-78 CNS) [µM]	TGI (DMS 273 small cell lung) [µM]	TGI (KM20L2 colon) [µM]	TGI (RXF-631 renal) [µM]	TGI (HOP-18 NSCLC) [µM]
COc1ccc(C2=NN(c3ccccc3)C[N+](c3ccc(OC)cc3)=N2)cc1	64	> 100	80.5	66.1	> 100		
COc1ccc(C(=O)Cc2ccc(Br)cc2)cc1OC	> 100	> 100	> 100	> 100	> 100	> 100	> 100
CN(C(=O)c1ccco1)C(=S)N1CCN(c2ccccc2)CC1	> 100	> 100		> 100	> 100		> 100
